Measured values reported in PMC10641818, “Development of First-in-Class Dual Sirt2/HDAC6 Inhibitors as Molecular Tools for Dual Inhibition of Tubulin Deacetylation” (Journal of Medicinal Chemistry, 2023).

Tests used:
Sirt3 = molecular target: T1, Sirt3 (Homo sapiens, UniProt Q9NTG7); assay: Sirt3 in vitro deacetylation assay (ZMAL); format: biochemical
T1 construct: the respective sirtuin (Sirt1_134–747, Sirt2_56–356, or Sirt3_118–395) was mixed with; made in house; host or cells: Escherichia coli BL21 Star (DE3)
T1 sequence (Q9NTG7 118-395): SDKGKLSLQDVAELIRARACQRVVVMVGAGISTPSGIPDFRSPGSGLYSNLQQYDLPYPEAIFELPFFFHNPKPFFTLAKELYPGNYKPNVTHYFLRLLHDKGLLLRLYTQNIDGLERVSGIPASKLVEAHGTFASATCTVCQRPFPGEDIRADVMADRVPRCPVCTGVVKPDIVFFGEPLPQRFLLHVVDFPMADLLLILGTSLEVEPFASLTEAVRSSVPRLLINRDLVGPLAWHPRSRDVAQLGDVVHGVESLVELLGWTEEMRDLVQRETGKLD

α-tubulin acetylation = assay: Immunofluorescence microscopy of α-tubulin acetylation in PC-3M-luc cells; format: cell-based; conditions: 20 μM, 5 h
Procedure: The detection of acetylation levels of α-tubulin by immunofluorescence was performed as previously described.[47] In brief, PC-3M-luc cells (25 000 cells per well) were plated in Ibidi 8-well slides (Ibidi, catalogue no. 80826) and incubated overnight at 37 °C, 5% CO2. Next, cells were treated with 20 μM of inhibitor. After 5 h, the medium was removed and the cells washed with PBS and fixed with 4% PFA for 8–10 min at ambient temperature. Cells were rinsed three times with PBS and lysed with extraction buffer (PBS, 0.1% Triton X-100) for 3–5 min at ambient temperature. After another washing step with PBS, blocking buffer (PBS, 0.1% Triton, 5% FCS) was added for at least 10 min before incubating with monoclonal acetylated α-tubulin antibody (1:500, Sigma-Aldrich, catalogue no. T6793) in blocking buffer overnight at 4 °C. […] The cells were rinsed two times with blocking buffer and once with PBS and DAPI in mounting medium ([…] HardSet Antifade Mounting Medium with DAPI, no. H-1500-10) diluted 1:50 in PBS was added and it was incubated for 10 min in the dark. Confocal microscopy was performed with a Leica SP8 confocal microscope equipped with a 40×/1.40 oil objective (Leica Microsystems) keeping the laser settings of the images constant to allow direct comparison of signal intensities between images.

Sirt2 (demyristoylation) = molecular target: T2, Sirt2 (demyristoylation) (Homo sapiens, UniProt Q8IXJ6); assay: Discontinuous Sirt2 demyristoylation assay (ZMML substrate); format: biochemical; conditions: mean ± SD
T2 construct: the respective sirtuin (Sirt1_134–747, Sirt2_56–356, or Sirt3_118–395) was mixed with; made in house; host or cells: Escherichia coli BL21 Star (DE3)
T2 sequence (Q8IXJ6 56-356): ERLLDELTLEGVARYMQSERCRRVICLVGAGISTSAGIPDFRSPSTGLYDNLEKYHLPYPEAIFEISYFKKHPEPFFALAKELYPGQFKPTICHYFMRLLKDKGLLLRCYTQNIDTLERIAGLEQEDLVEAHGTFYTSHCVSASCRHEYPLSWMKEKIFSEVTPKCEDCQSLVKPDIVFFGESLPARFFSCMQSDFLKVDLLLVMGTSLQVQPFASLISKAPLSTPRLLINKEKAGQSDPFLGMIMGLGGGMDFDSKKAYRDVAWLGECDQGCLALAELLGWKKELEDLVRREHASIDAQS

[1] = system: HGC27 gastric carcinoma cells; assay: Cell viability assay (MTS) HGC27; format: cell-based; conditions: Homo sapiens, HGC-27, 72 h
Summary of the method: (§1)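 HGC27 and PC-3M-luc cells (2000/well) were read by MTS after compound in 0.5% DMSO. W1 (10^4/well) and MCF-7 (2 × 10^3/well) were given half-log dilutions for 72 h, then MTT for 1 h, with absorbance at 570 nm minus 690 nm. Viability was fitted to a four-parameter logistic curve.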

Sirt2 [2] = molecular target: T3, Sirt2 (Homo sapiens, UniProt Q8IXJ6); assay: Cell-based NanoBRET assay for Sirt2 target engagement in HEK293T cells; conditions: tracer SirReal-TAMRA 2 μM, read-out: Cellular Sirt2 target engagement IC50 (NanoBRET)
T3 construct: expressed in transfected cells; host or cells: HEK293T
T3 sequence (Q8IXJ6 1-389): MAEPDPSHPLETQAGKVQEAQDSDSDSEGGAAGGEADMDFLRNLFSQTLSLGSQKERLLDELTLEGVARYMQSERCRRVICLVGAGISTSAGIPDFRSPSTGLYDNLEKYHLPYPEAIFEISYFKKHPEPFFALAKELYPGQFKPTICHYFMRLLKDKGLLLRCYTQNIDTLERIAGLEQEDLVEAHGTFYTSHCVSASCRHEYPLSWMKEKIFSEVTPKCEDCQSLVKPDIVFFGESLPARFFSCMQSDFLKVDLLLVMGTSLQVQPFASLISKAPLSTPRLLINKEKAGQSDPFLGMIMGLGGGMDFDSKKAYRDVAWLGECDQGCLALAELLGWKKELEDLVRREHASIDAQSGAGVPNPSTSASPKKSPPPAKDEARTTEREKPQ

W1 ovarian cancer cells = assay: Cell viability assay (MTT) W1; format: cell-based; conditions: 72 h
Summary of the method: as §1

Sirt2 [3] = molecular target: T4, Sirt2 (Homo sapiens, UniProt Q8IXJ6); assay: Sirt2 in vitro deacetylation assay (ZMAL, trypsin-based fluorescence); format: biochemical; conditions: deacetylation, mean ± SD
T4 construct: the respective sirtuin (Sirt1_134–747, Sirt2_56–356, or Sirt3_118–395) was mixed with; made in house; host or cells: Escherichia coli BL21 Star (DE3)
T4 sequence (Q8IXJ6 56-356): T2 sequence (Q8IXJ6 56-356)

HDAC1 = molecular target: T5, HDAC1 (Homo sapiens, UniProt Q13547); assay: HDAC1 in vitro deacetylation assay (ZMAL); format: biochemical
T5 construct: purchased BPS Bioscience 50051
T5 sequence (Q13547 whole entry): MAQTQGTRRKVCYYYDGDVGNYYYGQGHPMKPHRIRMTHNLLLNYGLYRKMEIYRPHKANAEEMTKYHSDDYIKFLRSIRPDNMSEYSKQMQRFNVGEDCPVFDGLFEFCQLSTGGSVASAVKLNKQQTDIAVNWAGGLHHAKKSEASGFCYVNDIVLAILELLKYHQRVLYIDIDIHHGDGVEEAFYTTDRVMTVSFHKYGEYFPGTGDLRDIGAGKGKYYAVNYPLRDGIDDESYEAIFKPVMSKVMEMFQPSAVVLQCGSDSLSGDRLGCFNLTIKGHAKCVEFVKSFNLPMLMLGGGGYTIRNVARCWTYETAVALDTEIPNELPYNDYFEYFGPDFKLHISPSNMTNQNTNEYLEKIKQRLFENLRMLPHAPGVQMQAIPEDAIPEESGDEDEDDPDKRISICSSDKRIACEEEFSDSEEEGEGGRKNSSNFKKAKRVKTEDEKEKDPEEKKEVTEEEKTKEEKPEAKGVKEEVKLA

SMILES | inhibition at 20 µM (Sirt3) | α-tubulin acetylation (immunofluorescence) (α-tubulin acetylation) | IC50 (Sirt2 (demyristoylation)) | inhibition at 50 µM ([1]; @ 50 μM, read-out: HGC27 percentual inhibition) | IC50 (Sirt2 [2]) | inhibition at 100 µM (W1 ovarian cancer cells; @ 0.1 mM, read-out: W1 percentual inhibition) | IC50 (Sirt2 [3]) | inhibition at 10 µM (HDAC1; @ 10 μM, read-out: HDAC1 percentual inhibition) | EC50 ([1]; MTS, mean ± SD) | EC50 (W1 ovarian cancer cells; MTT, mean ± SD) | IC50 (HDAC1; deacetylation, mean ± SD)
Cc1cc(C)nc(SCC(=O)Nc2ncc(Cc3cccc(OCc4cn(Cc5ccccc5)nn4)c3)s2)n1 [Compound 4, SirReal1.1, reference compound] | < 15% | very minor | 1.4 ± 0.3 µM | 39% | 0.2 µM | 3% | 0.22 ± 0.01 µM | 10% |  |  | 
CCCCN(Cc1ccc(C(=O)NO)cc1)C(=O)CCCCn1cc(COc2cccc(Cc3cnc(NC(=O)CSc4nc(C)cc(C)n4)s3)c2)nn1 [Compound 33, 4-((N-Butyl-5-(4-((3-((2-(2-((4,6-dimethylpyrimidin-2-yl)thio)acetamido)thiazol-5-yl)methyl)phenoxy)methyl)-1H-1,2,3-triazol-1-yl)pentanamido)methyl)-N-hydroxybenzamide] | < 15% | the increase in tubulin hyperacetylation was especially pronounced | 9.7 ± 1.3 µM |  | 0.56 µM |  | 0.32 ± 0.11 µM |  | 12.9 ± 0.9 µM | 19.2 ± 1.3 µM | 2.2 ± 0.2 µM
